Test results as given in article PMC11245557, “Differential potassium channel inhibitory activities of a novel thermostable degradation peptide BmKcug1a-P1 from scorpion medicinal material and its N-terminal truncated/restored peptides” (Scientific Reports, 2024).
Bridge positions count the residues as written; N and C are the ends. Peptide text beside a SMILES is read from it.

Key:
Assay type in all cases: cell-based
[1] = target: T1, hKv1.3 channel (Homo sapiens, UniProt P22001); assay: Whole-cell patch clamp, hKv1.3 currents in transfected HEK293T cells; conditions: mean ± SE; for IC50: dose-response fitted with modified Hill equation; for IC50 / inhibition of hKv1.3 channel current: SEM
T1 construct: expressed in transfected cells; host or cells: HEK293T
From the text: (§1) The cDNA fragments encoding potassium channels were provided by others as previously described. The cDNA encoding hKv1.1 channel and hKv1.3 channel were cloned into the pCDNA3.1(+) vector. The cDNA encoding hKv1.2 channel, hKv1.6 channel and hKv3.2 channel were inserted into the pIRES2-EGFP vector.
(§2) HEK293T cell lines were obtained from the BeNa Culture Collection (Xinyang, China) and maintained in DMEM (Dulbecco’s Modified Eagle Medium, Gibco, Pittsburgh, PA, USA) supplemented with 10% fetal bovine serum (FBS, Gibco) and 1% penicillin/streptomycin (Gibco). Cells were passaged using Pancreatin (Gibco). For transfection experiments, HEK293T cells were seeded in appropriate culture vessels and allowed to reach 70–80% confluency. The expression vectors of pEGFP-N1 and potassium channels were co-transfected into HEK293T cells using ExFect Transfection Reagent (Vazyme, Nanjing, China) following its manufacturer’s instructions. Briefly, plasmid DNA and transfection reagent were mixed in serum-free medium, incubated for 15–30 min at room temperature to allow complex formation, and then added to the cells. After 24–48 h transfection, the single positive cells were selected based on the presence of GFP fluorescence to assess the potassium channel inhibiting activities of the peptides using whole cell patch clamp technique.
(§3) An EPC-10 patch-clamp amplifier which was controlled by PatchMaster software (HEKA Elektronik, Lambrecht, Germany) was applied to measure and record the potassium currents for whole-cell. The MPS-2 multichannel microperfusion system (INBIO Inc., Wuhan, China) was applied to exchange the external bath solution with different concentration of peptides. According to the protocol as previously described, the internal patch pipette solution and bath solution were prepared. The peptides were dissolved in Bath solution with 0.01% BSA (Gibco, Pittsburgh, PA, USA) to different concentrations. The potassium currents of hKv1.1, hKv1.2, hKv1.3, hKv1.6 and hKv3.2 channel were generated following the respective protocols as previously described. The results of the electrophysiological experiment are presented as the mean ± SE, and over three cells for each peptide in any concentration were examined ([…]).
(§4) For electrophysiological experiments, we used the ClampFit (Molecular Devices, Sunnyvale, CA, USA) and SigmaPlot software (IBM SPSS, Chicago, IL, USA) to analyze the recorded data. The dose–response relationship between channel current and peptide inhibition is fitted by the modified Hill equation: Ipeptide/Icontrol = 1/{1 + [peptide]/IC50}, in which Ipeptide represent the potassium current under the inhibition of peptide, Icontrol represent the peak current, IC50 is the half-maximum inhibition concentration, and [peptide] represents the concentration of the peptide. The half inhibitory concentration (IC50) was the parameter to be fitted.

[2] = target: T2, hKv1.1 channel (Homo sapiens, UniProt Q09470); assay: Whole-cell patch clamp, hKv1.1 currents in transfected HEK293T cells; conditions: 1 μM peptide, mean ± SE, n ≥ 3, SEM
T2 construct: expressed in transfected cells; host or cells: HEK293T
From the text: as §1
as §2, with “Briefly, plasmid DNA and transfection reagent were mixed in serum-free medium, incubated for 15–30 min at room temperature to allow complex formation, and then added to the cells.” left out, “technique. […]” for “technique.”
(§5) For electrophysiological experiments, we used the ClampFit (Molecular Devices, Sunnyvale, CA, USA) and SigmaPlot software (IBM SPSS, Chicago, IL, USA) to analyze the recorded data. […]

[3] = target: T3, hKv1.6 channel (Homo sapiens, UniProt P17658); assay: Whole-cell patch clamp, hKv1.6 currents in transfected HEK293T cells; conditions: 1 μM peptide, mean ± SE, n ≥ 3, SEM
T3 construct: expressed in transfected cells; host or cells: HEK293T
From the text: as §1
as §2, with “Briefly, plasmid DNA and transfection reagent were mixed in serum-free medium, incubated for 15–30 min at room temperature to allow complex formation, and then added to the cells.” left out, “technique. […]” for “technique.”
as §5

[4] = target: T4, hKv1.2 channel (Homo sapiens, UniProt P16389); assay: Whole-cell patch clamp, hKv1.2 currents in transfected HEK293T cells; conditions: mean ± SE
T4 construct: expressed in transfected cells; host or cells: HEK293T
From the text: as §1, §2, §3, §4

[5] = target: T5, hKv3.2 channel (Homo sapiens, UniProt Q96PR1); assay: Whole-cell patch clamp, hKv3.2 currents in transfected HEK293T cells; conditions: 1 μM peptide, mean ± SE, n ≥ 3, SEM
T5 construct: expressed in transfected cells; host or cells: HEK293T
T5 sequence (Q96PR1 1-638): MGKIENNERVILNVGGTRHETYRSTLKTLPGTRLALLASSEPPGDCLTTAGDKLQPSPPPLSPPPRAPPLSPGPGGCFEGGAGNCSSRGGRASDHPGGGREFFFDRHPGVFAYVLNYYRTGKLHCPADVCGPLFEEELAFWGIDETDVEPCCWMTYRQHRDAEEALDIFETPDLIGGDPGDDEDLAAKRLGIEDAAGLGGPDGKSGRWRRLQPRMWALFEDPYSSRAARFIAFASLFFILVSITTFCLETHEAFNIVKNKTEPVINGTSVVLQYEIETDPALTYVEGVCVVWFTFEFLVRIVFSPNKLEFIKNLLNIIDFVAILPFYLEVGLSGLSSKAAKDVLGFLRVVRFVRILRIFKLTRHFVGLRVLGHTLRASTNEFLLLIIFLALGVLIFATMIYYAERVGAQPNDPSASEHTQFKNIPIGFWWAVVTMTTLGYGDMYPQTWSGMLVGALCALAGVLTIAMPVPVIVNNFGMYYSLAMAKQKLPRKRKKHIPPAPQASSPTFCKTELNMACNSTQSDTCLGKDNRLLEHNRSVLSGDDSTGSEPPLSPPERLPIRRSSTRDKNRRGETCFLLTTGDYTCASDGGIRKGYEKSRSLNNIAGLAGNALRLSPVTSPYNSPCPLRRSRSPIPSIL
From the text: as §1
as §2, with “Briefly, plasmid DNA and transfection reagent were mixed in serum-free medium, incubated for 15–30 min at room temperature to allow complex formation, and then added to the cells.” left out, “technique. […]” for “technique.”
as §5

[6] = 1 μM peptide, HEK293T, n ≥ 3, SEM

T4 sequence (P16389 whole entry): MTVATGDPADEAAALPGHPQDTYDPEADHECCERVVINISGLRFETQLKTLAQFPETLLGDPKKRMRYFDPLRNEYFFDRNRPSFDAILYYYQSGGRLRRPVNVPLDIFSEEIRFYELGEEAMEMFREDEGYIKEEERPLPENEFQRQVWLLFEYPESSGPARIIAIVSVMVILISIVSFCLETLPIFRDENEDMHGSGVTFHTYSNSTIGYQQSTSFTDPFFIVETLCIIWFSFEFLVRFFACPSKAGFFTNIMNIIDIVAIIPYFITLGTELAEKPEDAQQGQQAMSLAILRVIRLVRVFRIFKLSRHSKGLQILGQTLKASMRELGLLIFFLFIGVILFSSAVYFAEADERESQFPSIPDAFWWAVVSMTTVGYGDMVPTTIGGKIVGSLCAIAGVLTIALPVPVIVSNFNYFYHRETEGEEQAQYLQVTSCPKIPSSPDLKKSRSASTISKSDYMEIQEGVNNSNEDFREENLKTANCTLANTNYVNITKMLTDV
T1 sequence (P22001 whole entry): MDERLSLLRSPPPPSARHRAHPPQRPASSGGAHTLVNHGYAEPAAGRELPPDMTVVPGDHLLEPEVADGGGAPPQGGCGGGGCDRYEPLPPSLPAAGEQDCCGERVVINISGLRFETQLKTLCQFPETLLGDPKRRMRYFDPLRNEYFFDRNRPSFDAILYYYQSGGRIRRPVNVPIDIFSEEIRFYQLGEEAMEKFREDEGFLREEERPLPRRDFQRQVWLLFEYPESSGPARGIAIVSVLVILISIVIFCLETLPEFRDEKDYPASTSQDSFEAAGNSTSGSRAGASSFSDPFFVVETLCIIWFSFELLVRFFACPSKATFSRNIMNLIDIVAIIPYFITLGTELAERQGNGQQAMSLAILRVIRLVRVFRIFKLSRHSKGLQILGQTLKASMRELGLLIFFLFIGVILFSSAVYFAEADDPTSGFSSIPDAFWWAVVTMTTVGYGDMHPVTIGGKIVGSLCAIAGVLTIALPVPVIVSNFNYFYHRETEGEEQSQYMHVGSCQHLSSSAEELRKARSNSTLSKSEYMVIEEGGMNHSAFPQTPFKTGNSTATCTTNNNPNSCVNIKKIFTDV
T3 sequence (P17658 whole entry): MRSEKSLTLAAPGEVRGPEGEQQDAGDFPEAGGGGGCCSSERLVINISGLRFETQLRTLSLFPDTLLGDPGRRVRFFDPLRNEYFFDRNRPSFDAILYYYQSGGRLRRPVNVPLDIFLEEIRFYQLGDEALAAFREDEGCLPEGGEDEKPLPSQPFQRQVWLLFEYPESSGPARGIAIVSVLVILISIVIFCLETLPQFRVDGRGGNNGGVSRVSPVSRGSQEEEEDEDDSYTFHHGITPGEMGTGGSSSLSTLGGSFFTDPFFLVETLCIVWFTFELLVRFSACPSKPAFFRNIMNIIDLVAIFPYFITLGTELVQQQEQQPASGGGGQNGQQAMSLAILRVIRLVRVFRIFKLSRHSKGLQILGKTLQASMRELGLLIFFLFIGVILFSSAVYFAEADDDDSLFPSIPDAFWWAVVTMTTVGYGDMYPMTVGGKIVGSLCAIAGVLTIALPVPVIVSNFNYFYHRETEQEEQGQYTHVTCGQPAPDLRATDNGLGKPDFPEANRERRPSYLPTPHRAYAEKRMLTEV
T2 sequence (Q09470 whole entry): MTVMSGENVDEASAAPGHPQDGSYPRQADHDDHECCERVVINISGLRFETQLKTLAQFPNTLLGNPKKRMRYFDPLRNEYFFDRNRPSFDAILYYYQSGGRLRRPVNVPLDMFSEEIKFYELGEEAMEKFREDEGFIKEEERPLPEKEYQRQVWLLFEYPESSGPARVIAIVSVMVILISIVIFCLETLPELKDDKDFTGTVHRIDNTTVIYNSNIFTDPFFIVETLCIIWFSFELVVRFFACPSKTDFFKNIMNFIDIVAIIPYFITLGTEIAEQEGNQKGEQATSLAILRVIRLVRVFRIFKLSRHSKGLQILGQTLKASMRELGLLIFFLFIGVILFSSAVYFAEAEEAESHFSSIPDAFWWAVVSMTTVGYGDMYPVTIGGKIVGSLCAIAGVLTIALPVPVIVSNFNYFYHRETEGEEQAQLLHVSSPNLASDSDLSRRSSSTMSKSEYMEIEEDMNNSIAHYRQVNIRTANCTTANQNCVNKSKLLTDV

SMILES | IC50 ([1]; HEK293T) [nM] | inhibition of hKv1.3 channel current ([1]; 40 nM peptide) [%] | inhibition of hKv1.3 channel current ([1]; 200 nM peptide) [%] | inhibition of potassium currents mediated by hKv1.3 [1, 6] [%] | inhibition of hKv1.3 channel current ([1]; 5 μM peptide) [%] | inhibition of hKv1.3 channel current ([1]; 25 μM peptide) [%] | inhibition of potassium currents mediated by hKv1.1 [2] [%] | inhibition of potassium currents mediated by hKv1.6 [3] [%] | inhibition of hKv1.2 channel current ([4]; 200 nM peptide, SEM) [%] | inhibition of potassium currents mediated by hKv1.2 [4, 6] [%] | inhibition of hKv1.2 channel current ([4]; 5 μM peptide, SEM) [%] | inhibition of hKv1.2 channel current ([4]; 25 μM peptide, SEM) [%] | IC50 ([4]; HEK293T, dose-response fitted with modified Hill equation, SEM) [nM] | inhibition of potassium currents mediated by hKv3.2 [5] [%]
CSCC[C@@H]1NC(=O)[C@@H]2CSSC[C@H](NC(=O)[C@H](CO)NC(=O)[C@@H](NC(=O)[C@@H](N)CC(N)=O)C(C)C)C(=O)N[C@@H](CO)C(=O)N[C@@H](C)C(=O)N[C@@H](CO)C(=O)N[C@@H](CO)C(=O)N[C@@H](CCC(N)=O)C(=O)N[C@H]3CSSC[C@H](NC(=O)[C@H](CCCCN)NC(=O)[C@H](CO)NC(=O)[C@H](CC(N)=O)NC1=O)C(=O)N[C@@H](CCCNC(=N)N)C(=O)N[C@H](C(=O)N[C@@H](Cc1ccc(O)cc1)C(=O)N[C@@H](CO)C(=O)O)CSSC[C@H](NC(=O)[C@H](C(C)C)NC(=O)[C@@H]1CCCN1C(=O)[C@H](Cc1c[nH]c4ccccc14)NC3=O)C(=O)N[C@@H](CCC(=O)O)C(=O)N[C@@H](CCCCN)C(=O)N[C@@H](CC(C)C)C(=O)N[C@@H](Cc1ccccc1)C(=O)NCC(=O)N[C@@H]([C@@H](C)O)C(=O)N[C@@H](Cc1ccc(O)cc1)C(=O)N[C@@H](CCCNC(=N)N)C(=O)NCC(=O)N[C@@H](CCCCN)C(=O)N2 [BmKcug1a-P1-D2] (H-NVSCSASSQCWPVCEKLFGTYRGKCMNSKCRCYS-OH; disulfide 4-25, 10-30, 14-32) | 1660 ± 180 |  |  |  |  |  |  |  |  |  |  |  |  | 
CSCC[C@@H]1NC(=O)[C@@H]2CSSC[C@H](NC(=O)[C@@H](N)CO)C(=O)N[C@@H](CO)C(=O)N[C@@H](C)C(=O)N[C@@H](CO)C(=O)N[C@@H](CO)C(=O)N[C@@H](CCC(N)=O)C(=O)N[C@H]3CSSC[C@H](NC(=O)[C@H](CCCCN)NC(=O)[C@H](CO)NC(=O)[C@H](CC(N)=O)NC1=O)C(=O)N[C@@H](CCCNC(=N)N)C(=O)N[C@H](C(=O)N[C@@H](Cc1ccc(O)cc1)C(=O)N[C@@H](CO)C(=O)O)CSSC[C@H](NC(=O)[C@H](C(C)C)NC(=O)[C@@H]1CCCN1C(=O)[C@H](Cc1c[nH]c4ccccc14)NC3=O)C(=O)N[C@@H](CCC(=O)O)C(=O)N[C@@H](CCCCN)C(=O)N[C@@H](CC(C)C)C(=O)N[C@@H](Cc1ccccc1)C(=O)NCC(=O)N[C@@H]([C@@H](C)O)C(=O)N[C@@H](Cc1ccc(O)cc1)C(=O)N[C@@H](CCCNC(=N)N)C(=O)NCC(=O)N[C@@H](CCCCN)C(=O)N2 [BmKcug1a-P1-D4] (H-SCSASSQCWPVCEKLFGTYRGKCMNSKCRCYS-OH; disulfide 2-23, 8-28, 12-30 (inferred); N-terminus and C-terminus assumed) | 2210 ± 280 |  |  |  |  |  |  |  |  |  |  |  |  | 
CSCC[C@@H]1NC(=O)[C@@H]2CSSC[C@H](NC(=O)[C@H](CO)NC(=O)[C@@H](NC(=O)[C@H](CC(N)=O)NC(=O)[C@@H](NC(=O)[C@@H](N)Cc3ccccc3)[C@@H](C)O)C(C)C)C(=O)N[C@@H](CO)C(=O)N[C@@H](C)C(=O)N[C@@H](CO)C(=O)N[C@@H](CO)C(=O)N[C@@H](CCC(N)=O)C(=O)N[C@H]3CSSC[C@H](NC(=O)[C@H](CCCCN)NC(=O)[C@H](CO)NC(=O)[C@H](CC(N)=O)NC1=O)C(=O)N[C@@H](CCCNC(=N)N)C(=O)N[C@H](C(=O)N[C@@H](Cc1ccc(O)cc1)C(=O)N[C@@H](CO)C(=O)O)CSSC[C@H](NC(=O)[C@H](C(C)C)NC(=O)[C@@H]1CCCN1C(=O)[C@H](Cc1c[nH]c4ccccc14)NC3=O)C(=O)N[C@@H](CCC(=O)O)C(=O)N[C@@H](CCCCN)C(=O)N[C@@H](CC(C)C)C(=O)N[C@@H](Cc1ccccc1)C(=O)NCC(=O)N[C@@H]([C@@H](C)O)C(=O)N[C@@H](Cc1ccc(O)cc1)C(=O)N[C@@H](CCCNC(=N)N)C(=O)NCC(=O)N[C@@H](CCCCN)C(=O)N2 [BmKcug1a-P1] (H-FTNVSCSASSQCWPVCEKLFGTYRGKCMNSKCRCYS-OH; disulfide 6-27, 12-32, 16-34) | 1540 ± 280 | 7.0 ± 0.5 | 18.3 ± 2.1 | 47.3 ± 3.5 | 65.2 ± 2.3 | 82.0 ± 0.6 | 1.9 ± 0.3 | 3.8 ± 1.6 | 12.6 ± 3.3 | 37.7 ± 7.4 | 64.1 ± 4.5 | 83.9 ± 2.2 | 2120 ± 270 | 6.5 ± 0.9
